Data: patent US10051861B2, “N-arylamidine-substituted trifluoroethyl sulfide derivatives as acaricides and insecticides” (BAYER CROPSCIENCE AG, priority 2011, dated 2018)
Read-outs that look alike come from different tables or passages of the source.

Test system: greenhouse red spider mite (Tetranychus urticae)
Experiment: Tetranychus urticae spray test, OP-resistant (TETRUR), bean leaf disks
Assay type: in vivo
Details: Tetranychus urticae, foliar, 144 h, read-out: efficacy (spider mites killed)
Protocol: After 6 days, the effect in % is determined.

[1] = application rate 500 g/ha, after 6 days

Row | SMILES | pest or weed control at 500 g/ha [1] [%] | further results
1 | N/C(=N\c1cc(SCC(F)(F)F)c(Cl)cc1Cl)c1cccnc1 [Ia-141] | 100 | 
2 | CN/C(=N/c1cc(SCC(F)(F)F)c(C)cc1F)c1ccc(F)cc1 [Ia-144] | 100 | 
3 | Cc1cc(F)c(/N=C(\c2ccccc2F)N(C)C)cc1SCC(F)(F)F [Ia-147] | 100 | 
4 | CN/C(=N\c1cc(SCC(F)(F)F)c(C)cc1F)c1cnc(Cl)c(Cl)c1 [Ia-148] | 100 | 
5 | C=CCN/C(=N\c1cc(SCC(F)(F)F)c(C)cc1F)c1ccc(Cl)nc1 [Ia-150] | 100 | 
6 | CCN/C(=N\c1cc(SCC(F)(F)F)c(C)cc1F)c1cccnc1 [Ia-151] | 100 | 
7 | CN/C(=N\c1cc(SCC(F)(F)F)c(Cl)cc1Cl)c1ccc(Cl)nc1 [Ia-152] | 100 | 
8 | FC(F)(F)CN/C(=N\c1cc(SCC(F)(F)F)c(Cl)cc1Cl)C1CC1 [Ia-153] | 100 | 
9 | NN/C(=N/c1cc(SCC(F)(F)F)c(Cl)cc1F)C(F)(F)F [Ia-155] | 90 | 
10 | N/C(=N\c1cc(SCC(F)(F)F)c(Cl)cc1Cl)C1CCCCC1 [Ia-156] | 100 | 
11 | Cc1cc(F)c(/N=C(\NC2CC2)c2ccc(Cl)nc2)cc1SCC(F)(F)F [Ia-158] | 100 | 
12 | CN/C(=N/c1cc(SCC(F)(F)F)c(C)cc1F)c1ccc(C(F)(F)F)nc1 [Ia-159] | 90 | 
13 | Cc1cc(F)c(/N=C(\c2ccc(C(F)(F)F)nc2)N(C)C)cc1SCC(F)(F)F [Ia-160] | 90 | 
14 | Cc1cc(F)c(/N=C(\N)C2CCCC2)cc1SCC(F)(F)F [Ia-161] | 100 | 
15 | CN/C(=N\c1cc(SCC(F)(F)F)c(C)cc1F)C1CC1 [Ia-163] | 100 | 
16 | Cc1cc(C)c(SCC(F)(F)F)cc1/N=C(/c1cccnc1)N(C)C [Ia-167] | 90 | 
17 | CN/C(=N/c1cc(SCC(F)(F)F)c(C)cc1F)c1ccc(Cl)nc1 [Ia-168] | 90 | 
18 | Cc1cc(F)c(/N=C(\N)C2CCCCC2)cc1SCC(F)(F)F [Ia-169] | 90 | 
19 | N/C(=N\c1cc(SCC(F)(F)F)c(Cl)cc1Cl)c1ccncc1 [Ia-172] | 90 | 
20 | N#CC/C(N)=N/c1cc(SCC(F)(F)F)c(Cl)cc1Cl [Ia-173] | 90 | 
21 | CN/C(=N\c1cc(SCC(F)(F)F)c(C)cc1C)c1ccc(Cl)cc1 [Ia-176] | 90 | 
22 | CN/C(=N\c1cc(SCC(F)(F)F)c(Cl)cc1Cl)c1cccc(Cl)c1 [Ia-177] | 90 | 
23 | C/C=C/C=C/C(=N/c1cc(SCC(F)(F)F)c(C)cc1F)NC(C)CC (stereo not drawn) [Ia-178] | 90 | 
24 | Cc1cc(F)c(/N=C(/N2CCCC2)C(F)(F)F)cc1SCC(F)(F)F [Ia-180] | 90 | 
25 | Cc1cc(F)c(/N=C(\N)c2cccs2)cc1SCC(F)(F)F [Ia-181] |  | pest or weed control at 100 g/ha (application rate 100 g/ha, after 6 days): 90%

Row | SMILES | pest or weed control at 500 g/ha [1] [%] | further results
26 | Cc1cc(C)c(SCC(F)(F)F)cc1/N=C1\SCC(=O)N1C1CC1 [Ia-187] | 100 | 
27 | Cc1cc(F)c(/N=C2\SCC(=O)N2CC(F)F)cc1SCC(F)(F)F [Ia-188] | 100 | 
28 | Cc1cc(C)c(SCC(F)(F)F)cc1/N=C(\N)c1cnccn1 [Ia-190] | 90 | 
29 | O=C1CS/C(=N\c2cc(SCC(F)(F)F)c(Cl)cc2F)N1CC(F)(F)F [Ia-192] | 90 | 
30 | Cc1cc(F)c(/N=C(/c2ccccc2)N(C)C)cc1SCC(F)(F)F [Ia-193] | 100 | 
31 | O=C1CS/C(=N\c2ccc(Cl)c(SCC(F)(F)F)c2)N1CC(F)(F)F [Ia-194] | 100 | 
32 | Cc1ccc(/N=C2\SCC(=O)N2CC(F)(F)F)cc1SCC(F)(F)F [Ia-195] | 100 | 
33 | O=C1CS/C(=N\c2cc(SCC(F)(F)F)c(Cl)cc2Cl)N1C1CC1 [Ia-196] | 90 | 
34 | Cc1cc(F)c(/N=C2\SCC(=O)N2C2CC2)cc1SCC(F)(F)F [Ia-197] | 100 | 
35 | Cc1cc(F)c(/N=C2\CCCN2C(C)C(F)(F)F)cc1SCC(F)(F)F (stereo not drawn) [Ia-201] | 100 | 
36 | CN/C(=N/c1cc(SCC(F)(F)F)c(C)cc1F)c1cccc(C(F)(F)F)c1 [Ia-203] | 100 | 
37 | CN(C)/C(=N\c1cc(SCC(F)(F)F)c(Cl)cc1Cl)c1ccccc1 [Ia-205] | 100 | 
38 | N/C(=N\c1cc(SCC(F)(F)F)c(Cl)cc1Cl)c1cnccn1 [Ia-208] | 100 | 
39 | CN(C)/C(=N\c1cc(SCC(F)(F)F)c(Cl)cc1Cl)c1ccc(Cl)cc1 [Ia-211] | 100 | 
40 | Cc1cc(F)c(/N=C(\c2cccc(C(F)(F)F)c2)N(C)C)cc1SCC(F)(F)F [Ia-212] | 90 | 
41 | Cc1ccc(/N=C(/N)C(F)(F)F)cc1SCC(F)(F)F [Ia-213] | 100 | 
42 | CN/C(=N\c1cc(SCC(F)(F)F)c(C)cc1C)c1ccccn1 [Ia-214] | 100 | 
43 | Cc1cc(F)c(/N=C(/N)c2ccc(Cl)cc2)cc1SCC(F)(F)F [Ia-215] | 90 | 
44 | Cc1cc(F)c(/N=C(/CC(F)(F)F)N(C)C)cc1SCC(F)(F)F [Ia-216] | 90 | 
45 | CN/C(=N/c1ccc(Cl)c(SCC(F)(F)F)c1)C(F)(F)F [Ia-217] | 100 | 
46 | CN/C(=N/c1cc(SCC(F)(F)F)c(C)cc1F)c1ccc(Cl)s1 [Ia-218] | 90 | 
47 | N#CC1(/C(N)=N/c2cc(SCC(F)(F)F)c(Cl)cc2Cl)CC1 [Ia-219] | 90 | 
48 | Cc1ccc(/C(=N/c2cc(SCC(F)(F)F)c(C)cc2F)N2CCOCC2)cc1 [Ia-221] | 100 | 
49 | Cc1ccc(/N=C(/N(C)C)C(F)(F)F)cc1SCC(F)(F)F [Ia-222] | 100 | 
50 | Cc1cc(F)c(/N=C(/N)c2ccc([N+](=O)[O-])cc2)cc1SCC(F)(F)F [Ia-223] | 90 | 

Row | SMILES | pest or weed control at 500 g/ha [1] [%] | further results
51 | CCN/C(=N\c1cc(SCC(F)(F)F)c(C)cc1C)c1cccnc1 [Ia-224] | 100 | 
52 | Cc1cc(F)c(/N=C(\N)C(C)C)cc1SCC(F)(F)F [Ia-225] | 100 | 
53 | CN/C(=N/c1cc(SCC(F)(F)F)c(C)cc1F)C(F)(F)F [Ia-226] | 100 | 
54 | CCN(C)/C(=N\c1cc(SCC(F)(F)F)c(C)cc1C)c1ccc(Cl)nc1 [Ia-227] | 100 | 
55 | Cc1cc(F)c(/N=C(/c2ccccc2Cl)N2CCOCC2)cc1SCC(F)(F)F [Ia-230] | 100 | 
56 | CCN(C)/C(=N\c1cc(SCC(F)(F)F)c(C)cc1C)c1ccc(Cl)cc1 [Ia-231] | 90 | 
57 | Cc1cc(C)c(SCC(F)(F)F)cc1/N=C(\NC1CC1)c1ccc(Cl)nc1 [Ia-232] | 90 | 
58 | CN/C(CC(F)(F)F)=N\c1cc(SCC(F)(F)F)c(C)cc1F [Ia-233] | 100 | 
59 | Cc1cc(Cl)c(SCC(F)(F)F)cc1/N=C(\N)c1cnccn1 [Ia-234] | 100 | 
60 | FC(F)(F)CSc1cc(/N=C(\NCCc2ncc(C(F)(F)F)cc2Cl)C2CC2)c(Cl)cc1Cl [Ia-235] | 90 | 
61 | COc1cc(C)c(SCC(F)(F)F)cc1/N=C(/N)C(F)(F)F [Ia-236, 2,2,2-Trifluoro-N′-{2-methoxy-4-methyl-5-[(2,2,2-trifluoroethyl)sulfanyl]phenyl}ethanimidamide] | 100 | 
62 | CN(C)/C(=N\c1cc(SCC(F)(F)F)c(Cl)cc1Cl)c1ccc(Cl)nc1 [Ia-237] | 90 | 
63 | Cc1cc(F)c(/N=C2/NCCS2)cc1SCC(F)(F)F [Ia-238, 2-Fluoro-4-methyl-N-[1,3-thiazolidin-2-ylidene]-5-[(2,2,2-trifluoroethyl)sulfanyl]aniline] |  | pest or weed control at 500 g/ha: 100%
64 | CN/C(=N\c1cc(SCC(F)(F)F)c(C)cc1C)c1ccncc1 [Ia-239] | 100 | 
65 | Cc1cc(C)c(SCC(F)(F)F)cc1/N=C(/c1ccccc1)N(C)C [Ia-240] | 90 | 
66 | Cc1cc(C)c(SCC(F)(F)F)cc1/N=C(\NCC(F)(F)F)C1CCCC1 [Ia-241] | 90 | 
67 | Cc1cc(F)c(/N=C(\c2ccc(C(F)(F)F)cc2)N(C)C)cc1SCC(F)(F)F [Ia-242] | 100 | 
68 | Cc1cc(F)c(/N=C2\NCCO2)cc1SCC(F)(F)F [Ia-243] |  | pest or weed control at 500 g/ha: 90%
69 | C#CCN/C(=N\c1cc(SCC(F)(F)F)c(Cl)cc1Cl)C1CC1 [Ia-244] | 90 | 
70 | Cc1cc(F)c(/N=C(\c2ccccc2C(F)(F)F)N(C)C)cc1SCC(F)(F)F [Ia-245] | 90 | 
71 | Cc1cc(F)c(/N=C(\NC2CCS(=O)(=O)C2)C2CC2)cc1SCC(F)(F)F (stereo not drawn) [Ia-247] | 100 | 
72 | CN/C(=N\c1cc(SCC(F)(F)F)c(Cl)cc1Cl)c1ccccn1 [Ia-248] | 90 | 
73 | C#CCN/C(=N\c1cc(SCC(F)(F)F)c(C)cc1F)C1CC1 [Ia-249] | 100 | 
74 | COc1cc(C)c(SCC(F)(F)F)cc1/N=C(/c1ccc(Cl)cc1)N(C)C [Ia-252] | 90 | 
75 | FC(F)CN/C(=N\c1cc(SCC(F)(F)F)c(Cl)cc1Cl)C1CC1 [Ia-253] | 90 | 
